Source: US20240327463A1, “ANTIBACTERIAL PRODUCTS” (priority 2017, published 2024)
In brackets after ≈: the same amount, converted by molar mass. Bridge positions count the residues as written; N and C are the ends. Square brackets hold non-standard residues; d marks the D form. Peptide text beside a SMILES is read from it. ξ: configuration not given here. dNMeF = CN[C@H](Cc1ccccc1)C(=O)O; Ile(3ξ) = CCC(C)[C@H](N)C(=O)O

Assays:
[1] = tested on: MRSA 1003; format: cell-based, Staphylococcus aureus
Procedure: (§1) Bacteria were grown on Mueller Hinton broth (oxoid). All incubations were at 37° C. Dilutions were carried out using Mueller Hinton. […] This process was repeated up to well 11. […] This was repeated three times. […] Results are tabulated in the Examples.

[2] = tested on: Staphylococcus saprophyticus ATCC BAA 750; format: cell-based; conditions: ATCC BAA 750
Procedure: as §1

[3] = tested on: Staphylococcus saprophyticus ATCC 15305; format: cell-based; conditions: ATCC 15305
Procedure: as §1

[4] = tested on: Staphylococcus saprophyticus ATCC 49453; format: cell-based; conditions: ATCC 49453
Procedure: as §1

[5] = tested on: Staphylococcus saprophyticus ATCC 49907; format: cell-based; conditions: ATCC 49907
Procedure: as §1

[6] = tested on: SA4299; format: cell-based; conditions: Table 11
Procedure: as §1

[7] = tested on: Bacillus Cereus ATCC 11788; format: cell-based
Procedure: as §1

[8] = tested on: SE12228; format: cell-based
Procedure: as §1

[9] = tested on: Bacillus Subtilis ATCC 6633; format: cell-based
Procedure: as §1

[10] = tested on: MRSA ATCC 33591; conditions: for MIC (MRSA): ATCC 33591
Method in brief: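 Twofold dilutions of DMSO-solubilised peptides (from 512 μg/ml) in Mueller Hinton; 24 h incubation, 37° C; visible growth scored.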

[11] = tested on: VRE 1008; format: cell-based, Enterococcus faecalis
Procedure: as §1

[12] = tested on: VRE 1004; format: cell-based, Enterococcus faecalis
Procedure: as §1

[13] = tested on: VRE 1001; format: cell-based, Enterococcus faecalis
Procedure: as §1

[14] = tested on: VRE 1002; format: cell-based, Enterococcus faecalis
Procedure: as §1

[15] = tested on: MRSA DM21455 (eye); assay: microbe, parasite or virus in culture; conditions: DM21455 (eye)
Procedure: (§2) For MIC testing all peptides were dissolved in DMSO (according to the method of L. L. Ling, et al., Nature 2015, 517, 455-459). Bacteria were grown on Mueller Hinton broth (oxoid). All incubations were at 37° C. Dilutions were carried out using Mueller Hinton. 100 μl of autoclaved Mueller Hinton broth was added to wells 2-12 on a 96-well plate. 200 μl of the peptide was added to well one at a concentration of 512 μg/ml. 100 μl of peptide in well one was taken up and pipetted into well two. The mixture was then mixed via pipetting before 100 μl was taken up and pipetted into well three. This process was repeated up to well 11. […] This was repeated three times. The 96-well plates were then incubated for 24 hours. The MIC was determined to be the lowest concentration at which there was no growth visible.

[16] = tested on: Staphylococcus aureus ATCC 29213; assay: microbe, parasite or virus in culture; conditions: ATCC 29213
Procedure: as §2

[17] = tested on: VRE ATCC 700802; assay: microbe, parasite or virus in culture; conditions: ATCC 700802
Procedure: as §2

[18] = tested on: VRE ATCC 29212; assay: microbe, parasite or virus in culture; conditions: ATCC 29212
Procedure: as §2

[19] = tested on: MRSA DR 42412 (sputum); assay: microbe, parasite or virus in culture; conditions: DR 42412 (sputum)
Procedure: as §2

[20] = tested on: MRSA ATCC 700699; assay: microbe, parasite or virus in culture; conditions: ATCC 700699
Procedure: as §2

| SMILES | MIC [1] [µg/mL] | MIC [2] [µg/mL] | MIC [3] [µg/mL] | MIC [4] [µg/mL] | MIC [5] [µg/mL] | MIC [6] [µg/mL] | MIC [7] [µg/mL] | MIC [8] [µg/mL] | MIC [9] [µg/mL] | MIC [11] [µg/mL] | MIC [12] [µg/mL] | MIC [13] [µg/mL] | MIC [14] [µg/mL] | MIC [15] [µg/mL] | MIC [16] [µg/mL] | MIC [17] [µg/mL] | MIC [18] [µg/mL] | MIC [19] [µg/mL] | MIC [20] [µg/mL] | MIC (MRSA) [10] [µg/mL] | also measured |
| --- | --- | --- | --- | --- | --- | --- | --- | --- | --- | --- | --- | --- | --- | --- | --- | --- | --- | --- | --- | --- | --- |
| CC[C@@H](C)[C@@H](NC(=O)[C@@H](CCCNC(=N)N)NC(=O)[C@H](CCCNC(=N)N)NC(=O)[C@@H](NC(=O)[C@@H](Cc1ccccc1)NC)[C@@H](C)CC)C(=O)N[C@H](C(=O)N[C@@H](CO)C(=O)N[C@H]1C(=O)N[C@@H](C)C(=O)N[C@@H](CC(C)C)C(=O)N[C@@H]([C@@H](C)CC)C(=O)O[C@H]1C)[C@@H](C)CC [Compound 28, Arg3-D-Arg4-Leu10-teixobactin] (H-[dNMeF]IR[dR][dI]IS[dT]ALI; ester 8-C) | 1 (≈ 0.77 µM) | <0.0625 | <0.0625 | <0.0625 | <0.0625 | 0.25 (≈ 0.193 µM) | 1 (≈ 0.77 µM) | <0.0625 | <0.0625 | 0.5 (≈ 0.385 µM) | 0.5 (≈ 0.385 µM) | 1 (≈ 0.77 µM) | 1 (≈ 0.77 µM) | 0.5 (≈ 0.385 µM) | 0.25 (≈ 0.193 µM) | 2 (≈ 1.54 µM) | 1 (≈ 0.77 µM) | 0.25 (≈ 0.193 µM) | 0.5 (≈ 0.385 µM) | – | MIC against MRSA ATCC 33591 ([10]; MRSA ATCC 33591): 0.25 µg/mL (≈ 0.193 µM) |
| CC[C@@H](C)[C@@H](NC(=O)[C@@H](CCC(N)=O)NC(=O)[C@H](CO)NC(=O)[C@@H](NC(=O)[C@@H](Cc1ccccc1)NC)[C@@H](C)CC)C(=O)N[C@H](C(=O)N[C@@H](CO)C(=O)N[C@H]1C(=O)N[C@@H](CCCNC(=N)N)C(=O)N[C@@H](CC(C)C)C(=O)N[C@@H]([C@@H](C)CC)C(=O)O[C@H]1C)[C@@H](C)CC [Compound 27, Arg9-Leu10-teixobactin] (H-[dNMeF]IS[dQ][dI]IS[dT]RLI; ester 8-C) | 0.25 (≈ 0.194 µM) | <0.0625 | <0.0625 | <0.0625 | <0.0625 | 0.25 (≈ 0.194 µM) | 0.25 (≈ 0.194 µM) | <0.0625 | <0.0625 | 0.25 (≈ 0.194 µM) | 0.25 (≈ 0.194 µM) | 0.5 (≈ 0.389 µM) | 1 (≈ 0.777 µM) | 0.25 (≈ 0.194 µM) | 0.5 (≈ 0.389 µM) | 0.5 (≈ 0.389 µM) | 1 (≈ 0.777 µM) | <0.0625 | 0.5 (≈ 0.389 µM) | 0.125 (≈ 0.0972 µM) | – |
| CCC(C)[C@@H]1NC(=O)[C@H](CCCNC(=N)N)NC(=O)[C@H](NC(=O)[C@H](CO)NC(=O)[C@@H](NC(=O)[C@H](NC(=O)[C@@H](CCC(N)=O)NC(=O)[C@H](CO)NC(=O)[C@@H](NC(=O)[C@@H](Cc2ccccc2)NC)[C@@H](C)CC)[C@H](C)CC)[C@@H](C)CC)[C@H](C)OC(=O)[C@H]([C@@H](C)CC)NC1=O (stereo partly drawn) [Compound 34, Arg9-Ile10-teixobactin] (H-[dNMeF]IS[dQ][dI]IS[dT]R[Ile(3ξ)]I; ester 8-C) | 0.5 (≈ 0.389 µM) | <0.0625 | <0.0625 | <0.0625 | <0.0625 | 1 (≈ 0.777 µM) | 0.5 (≈ 0.389 µM) | <0.0625 | 0.125 (≈ 0.0972 µM) | 1 (≈ 0.777 µM) | 1 (≈ 0.777 µM) | 1 (≈ 0.777 µM) | 1 (≈ 0.777 µM) | 0.5 (≈ 0.389 µM) | 1 (≈ 0.777 µM) | 1 (≈ 0.777 µM) | 1 (≈ 0.777 µM) | 0.125 (≈ 0.0972 µM) | 1 (≈ 0.777 µM) | 0.25 (≈ 0.194 µM) | – |
